Assay results: article PMC10197133, “Synthesis, Computational Insights, and Evaluation of Novel Sigma Receptors Ligands” (ACS Chemical Neuroscience, 2023)
“Also recorded” adds a separate entry of the source.

What was measured:
S2R = target: T1, S2R (Rattus norvegicus, UniProt Q5U3Y7); experiment: S2R radioligand binding assay, [3H]DTG with (+)-pentazocine as S1R masking agent, liver homogenates; design: species or system male Sprague-Dawley rats; conditions: read-out: Ki (nM) ± SD S2R
T1 construct: from tissue; host or cells: rat liver homogenate (male Sprague-Dawley)
T1 sequence (Q5U3Y7 1-176): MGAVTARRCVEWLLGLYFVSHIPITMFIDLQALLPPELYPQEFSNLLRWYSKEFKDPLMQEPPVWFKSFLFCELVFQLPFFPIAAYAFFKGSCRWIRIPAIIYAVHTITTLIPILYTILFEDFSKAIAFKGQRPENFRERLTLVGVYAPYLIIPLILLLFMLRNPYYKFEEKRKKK
Description: (§1) The Ki-values were calculated with the program GraphPad Prism 7.0 (GraphPad Software, San Diego, California). The Ki-values are given as mean value ± SD from at least two independent experiments performed in duplicate.

S1R [1] = target: T2, S1R (Rattus norvegicus, UniProt Q9R0C9); experiment: S1R radioligand binding assay, [3H](+)-pentazocine, liver homogenates; design: from tissue; host or cells: rat liver homogenate (male Sprague-Dawley); species or system male Sprague-Dawley rats; conditions: for KiS2R/KiS1R (preference for S1R over S2R): ratio of S2R Ki to S1R Ki; for Ki: read-out: Ki (nM) ± SD S1R
Description: as §1

S1R [2] = target: T2, S1R; experiment: S1R functional assay: S1R radioligand binding with or without phenytoin; design: incubating 200 μL of membrane preparation with 50 μL of 20 nM; from tissue; host or cells: membrane preparation; conditions: for ratio Ki (nM) control/+ phenythoin: >1 agonist, ≤1 antagonist; for S1R functional profile in vitro (phenytoin assay): concluded from Ki ratio control/with phenytoin
Description: In order to further asses the functional profile of compounds 4b, 5b, and 8f, the well-established phenytoin-based functional assay was carried out.[52] Previous studies have shown that phenytoin, a low-potent allosteric modulator for the S1R, differentially modulates the affinity of S1R ligands depending on their agonist versus antagonist functionality.
The functionality of compounds 4b, 5b, and 8f on S1R was determined using the same radiolabeled binding assay for the S1R in the presence of phenytoin. […] The final volume was 0.5 mL.

[3] = tested on: capsaicin-induced mechanical hypersensitivity in mice; experiment: Capsaicin-induced secondary mechanical hypersensitivity (allodynia); format: in vivo, female CD1 mice; conditions: for S1R functional profile in vivo: concluded from the capsaicin model; for antiallodynic effect, compound administered alone / dose reaching full reversal of mechanical hypersensitivity (maximum antiallodynic effect): s.c.; for antiallodynic effect, compound administered alone: 30 min before capsaicin 1 μg i.pl., paw withdrawal latency at 0.5 g force, 4b 5–20 mg/kg, PRE-084 32 mg/kg; for antiallodynic effect when associated with the S1R agonist PRE-084: PRE-084 32 mg/kg s.c. 5 min before, BD-1063 40 mg/kg, 8f and 5b 20 mg/kg s.c.; for dose reaching full reversal of mechanical hypersensitivity (maximum antiallodynic effect): capsaicin 1 μg i.pl., mice
Description: We used capsaicin-induced secondary hypersensitivity (allodynia) as a pain model. It has been described that the increase in mechanical sensitivity in the area surrounding capsaicin injection (area of secondary allodynia) is due to central sensitization, which is a relevant process for chronic pain development and maintenance.[48]
Experiments were performed in female CD1 mice (Charles River, Barcelona, Spain) weighing 25–30 g. The mice were acclimated in our animal facilities for at least 1 week before testing and housed in a room under controlled environmental conditions: 12/12 h day/night cycle, air replacement every 20 min, and regulated temperature (22 ± 2 °C). The animals were fed a standard laboratory diet (Harlan Teklad Research Diet, Madison, Wisconsin) and tap water ad libitum until the beginning of the experiments. Testing was always performed from 9.00 to 15.00 h and randomly throughout the oestrous cycle. Animal care was made in accordance with institutional (Research Ethics Committee of the University of Granada, Spain), regional (Junta de Andalucía, Spain), and international standards (European Communities Council Directive 2010/63).
As selective S1R drugs, we used the S1R antagonist BD-1063 (1-[2-(3,4-dichlorophenyl)ethyl]-4-methylpiperazine dihydrochloride) and the S1R agonist PRE-084 (2-(4-morpholinethyl)-1-phenyl cyclohexane carboxylate hydrochloride) (both provided by Tocris Cookson, Bristol, U.K.).[57] The standard or experimental compounds were dissolved in 5% DMSO (Merck KGaA, Darmstadt, Germany) in physiological sterile saline (0.9% NaCl). They were prepared immediately before the start of the experiments and injected s.c. in a volume of 5 mL/kg into the interscapular area.
To test for the antiallodynic effects of BD-1063, 4b, 5b, or 8f, they were administered 30 min before the injection of capsaicin, used as the chemical algogen. To test the effects of PRE-084 or 4b on the antiallodynia induced by BD-1063, 8f, or 5b, the former were administered 5 min before the latter. When the effect of the association of several drugs was assessed, each injection was performed in different areas of the interscapular zone to avoid mixture of the drug solutions and any physicochemical interaction between them.
Capsaicin (Sigma-Aldrich Química S.A.) was dissolved in 1% DMSO in physiological sterile saline to a concentration of 0.05 μg/μL (i.e., 1 μg per mouse). Capsaicin solution was injected intraplantarly (i.pl.) into the right hind paw proximate to the heel, in a volume of 20 μL using a 1710 TLL Hamilton microsyringe (Teknokroma, Barcelona, Spain) with a 30^1/2-gauge needle. Control animals were injected with the same volume of the vehicle of capsaicin.
Animals were placed for 2 h in individual black-walled test compartments, which were situated on an elevated mesh-bottom platform with a 0.5-cm^2 grid to provide access to the ventral surface of the hind paws. Punctate mechanical stimulation was applied with a Dynamic Plantar Aesthesiometer (Ugo Basile, Varese, Italy) 15 min after capsaicin or saline administration (i.e., 45 min after the injection of the experimental drug). Briefly, a nonflexible filament (0.5 mm diameter) was electronically driven into the ventral side of the right hind paw (which was previously injected with capsaicin or vehicle) at least 5 mm away from the site of the injection toward the fingers. The intensity of the stimulation was fixed at 0.5 g force, as described previously.[49],[50] When a paw withdrawal response occurred, the stimulus was automatically terminated and the response latency was recorded. The filament was applied three times at intervals of 0.5 min, and the mean value of the three trials was considered the withdrawal latency time of the animal.

[4] = with phenytoin (20 μL of 25 mM in 0.5 mL), 120 min at 37 °C, read-out: Ki (nM) + phenythoin
[5] = without phenytoin, read-out: Ki (nM) control

T2 sequence (Q9R0C9 whole entry): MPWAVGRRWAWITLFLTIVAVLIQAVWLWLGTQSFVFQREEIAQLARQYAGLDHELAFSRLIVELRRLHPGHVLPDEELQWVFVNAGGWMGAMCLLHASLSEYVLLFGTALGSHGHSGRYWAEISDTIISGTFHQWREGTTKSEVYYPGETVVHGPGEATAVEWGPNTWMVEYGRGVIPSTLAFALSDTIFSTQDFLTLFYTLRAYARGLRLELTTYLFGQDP

## c1ccc(CCN2CC3(CCN(c4ccccc4)CC3)C2)cc1 [4a, 2-Phenethyl-7-phenyl-2,7-diazaspiro[3.5]nonane]
S2R
  Ki: 77 ± 12 nM
S1R [1]
  KiS2R/KiS1R (preference for S1R over S2R): 2.8
  Ki: 28 ± 2 nM

## c1ccc(CCN2CC3(CCN(Cc4ccccc4)CC3)C2)cc1 [4b, 7-Benzyl-2-phenethyl-2,7-diazaspiro[3.5]nonane]
S1R [2]
  ratio Ki (nM) control/+ phenythoin: 2.6
  S1R functional profile in vitro (phenytoin assay): agonist profile for the S1R
S1R [2]; [4]
  Ki: 1.2 nM
S1R [2]; [5]
  Ki: 3.2 nM
[3]; 4b 2.5–10 mg/kg s.c. associated with BD-1063 40 mg/kg s.c.
  effect on the antiallodynic effect of BD-1063: fully reverse the antiallodynic effect of BD-1063
[3]
  S1R functional profile in vivo: S1R agonistic in vivo effect
  antiallodynic effect, compound administered alone: completely devoid of antiallodynic effect; also recorded: no antiallodynic effect
S2R
  Ki: 27 ± 5.3 nM
S1R [1]
  KiS2R/KiS1R (preference for S1R over S2R): ~10
  Ki: 2.7 ± 0.3 nM

## c1ccc(CCN2CCC3(CC2)CN(CCc2ccccc2)C3)cc1 [4c, 2,7-Diphenethyl-2,7-diazaspiro[3.5]nonane]
S2R
  Ki: 22 ± 2.5 nM
S1R [1]
  KiS2R/KiS1R (preference for S1R over S2R): 6.3
  Ki: 3.5 ± 0.3 nM

## c1ccc(CCCN2CC3(CCN(c4ccccc4)CC3)C2)cc1 [4d, 7-Phenyl-2-(3-phenylpropyl)-2,7-diazaspiro[3.5]nonane]
S2R
  Ki: 51 ± 5 nM
S1R [1]
  KiS2R/KiS1R (preference for S1R over S2R): 1.5
  Ki: 34 ± 7.7 nM

## c1ccc(CCCN2CC3(CCN(Cc4ccccc4)CC3)C2)cc1 [4e, 7-Benzyl-2-(3-phenylpropyl)-2,7-diazaspiro[3.5]nonane]
S2R
  Ki: 31 ± 5.4 nM
S1R [1]
  KiS2R/KiS1R (preference for S1R over S2R): 4.3
  Ki: 7.2 ± 0.5 nM

## c1ccc(CCCN2CC3(CCN(CCc4ccccc4)CC3)C2)cc1 [4f, 7-Phenethyl-2-(3-phenylpropyl)-2,7-diazaspiro[3.5]nonane]
S2R
  Ki: 149 ± 27 nM
S1R [1]
  KiS2R/KiS1R (preference for S1R over S2R): 1.2
  Ki: 126 ± 22 nM

## O=C(c1ccccc1)N1CCC2(CC1)CN(CCc1ccccc1)C2 [5a, (2-Phenethyl-2,7-diazaspiro[3.5]nonan-7-yl)(phenyl)methanone]
S2R
  Ki: 255 ± 62 nM
S1R [1]
  KiS2R/KiS1R (preference for S1R over S2R): 6.8
  Ki: 37 ± 9.6 nM

## O=C(Cc1ccccc1)N1CCC2(CC1)CN(CCc1ccccc1)C2 [5b, 1-(2-Phenethyl-2,7-diazaspiro[3.5]nonan-7-yl)-2-phenylethan-1-one]
S1R [2]
  ratio Ki (nM) control/+ phenythoin: 0.9
  S1R functional profile in vitro (phenytoin assay): antagonists for the S1R
S1R [2]; [4]
  Ki: 14 nM
S1R [2]; [5]
  Ki: 12 nM
[3]
  antiallodynic effect when associated with the S1R agonist PRE-084: abolish the antiallodynic effect; also recorded: completely reversed their antiallodynic action
  S1R functional profile in vivo: S1R antagonistic in vivo effect
  antiallodynic effect, compound administered alone: mimicked the effect of the known S1R antagonist
  dose reaching full reversal of mechanical hypersensitivity (maximum antiallodynic effect): 20 mg/kg
S2R
  Ki: 102 ± 26 nM
S1R [1]
  KiS2R/KiS1R (preference for S1R over S2R): 7.8
  Ki: 13 ± 2.5 nM

## c1ccc(CN2CCCC3CN(c4ccccc4)CC32)cc1 (stereo not drawn) [8a, 1-Benzyl-6-phenyloctahydro-1H-pyrrolo[3,4-b]pyridine]
S2R
  Ki: 148 ± 29 nM
S1R [1]
  KiS2R/KiS1R (preference for S1R over S2R): 0.6
  Ki: 254 ± 32 nM

## c1ccc(CCN2CCCC3CN(c4ccccc4)CC32)cc1 (stereo not drawn) [8b, 1-Phenethyl-6-phenyloctahydro-1H-pyrrolo[3,4-b]pyridine]
S2R
  Ki: 279 ± 83 nM
S1R [1]
  KiS2R/KiS1R (preference for S1R over S2R): 0.6
  Ki: 505 ± 88 nM

## c1ccc(CCN2CCCC3CN(Cc4ccccc4)CC32)cc1 (stereo not drawn) [8c, 6-Benzyl-1-phenethyloctahydro-1H-pyrrolo[3,4-b]pyridine]
S2R
  Ki: 126 ± 19 nM
S1R [1]
  Ki: 19 ± 2.6 nM

## c1ccc(CCN2CC3CCCN(CCc4ccccc4)C3C2)cc1 (stereo not drawn) [8d, 1,6-Diphenethyloctahydro-1H-pyrrolo[3,4-b]pyridine]
S2R
  Ki: 114 ± 15 nM
S1R [1]
  KiS2R/KiS1R (preference for S1R over S2R): 0.07
  Ki: 1730 ± 403 nM

## c1ccc(CCCN2CCCC3CN(c4ccccc4)CC32)cc1 (stereo not drawn) [8e, 6-Phenyl-1-(3-phenylpropyl)octahydro-1H-pyrrolo[3,4-b]pyridine]
S2R
  Ki: 91 ± 5.8 nM
S1R [1]
  KiS2R/KiS1R (preference for S1R over S2R): 0.8
  Ki: 108 ± 31 nM

## c1ccc(CCCN2CCCC3CN(Cc4ccccc4)CC32)cc1 (stereo not drawn) [8f, 6-Benzyl-1-(3-phenylpropyl)octahydro-1H-pyrrolo[3,4-b]pyridine]
S1R [2]
  ratio Ki (nM) control/+ phenythoin: 0.8
  S1R functional profile in vitro (phenytoin assay): antagonists for the S1R
S1R [2]; [4]
  Ki: 12 nM
S1R [2]; [5]
  Ki: 9.6 nM
[3]
  antiallodynic effect when associated with the S1R agonist PRE-084: abolish the antiallodynic effect; also recorded: completely reversed their antiallodynic action
  S1R functional profile in vivo: S1R antagonistic in vivo effect
  antiallodynic effect, compound administered alone: mimicked the effect of the known S1R antagonist
  dose reaching full reversal of mechanical hypersensitivity (maximum antiallodynic effect): 20 mg/kg
S2R
  Ki: 165 ± 36 nM
S1R [1]
  KiS2R/KiS1R (preference for S1R over S2R): 16.5
  Ki: 10 ± 1.6 nM

## c1ccc(CCCN2CCCC3CN(CCc4ccccc4)CC32)cc1 (stereo not drawn) [8g, 6-Phenethyl-1-(3-phenylpropyl)octahydro-1H-pyrrolo[3,4-b]pyridine]
S2R
  Ki: 1030 ± 200 nM
S1R [1]
  KiS2R/KiS1R (preference for S1R over S2R): 1.4
  Ki: 710 ± 150 nM

## CN1CCN(CCc2ccc(Cl)c(Cl)c2)CC1.Cl.Cl [BD-1063, 1-[2-(3,4-dichlorophenyl)ethyl]-4-methylpiperazine dihydrochloride, reference compound]
S1R [2]
  ratio Ki (nM) control/+ phenythoin: 0.7
S1R [2]; [4]
  Ki: 10 nM
S1R [2]; [5]
  Ki: 6.7 nM
[3]
  antiallodynic effect when associated with the S1R agonist PRE-084: abolish the antiallodynic effect
  antiallodynic effect, compound administered alone: full and dose-dependent reduction of mechanical hypersensitivity
  dose reaching full reversal of mechanical hypersensitivity (maximum antiallodynic effect): 40 mg/kg

## Cl.O=C(OCCN1CCOCC1)C1(c2ccccc2)CCCCC1 [PRE-084, 2-(4-morpholinethyl)-1-phenyl cyclohexane carboxylate hydrochloride, reference compound]
[3]
  antiallodynic effect, compound administered alone: did not modify the response latency

## C=CCN1CC[C@]2(C)c3cc(O)ccc3C[C@H]1[C@H]2C [SKF-10,047, reference compound]
S1R [2]
  ratio Ki (nM) control/+ phenythoin: 5.8
  S1R functional profile in vitro (phenytoin assay): agonist profile for the S1R
S1R [2]; [4]
  Ki: 17 nM
S1R [2]; [5]
  Ki: 99 nM
